Experiments:
[1] = system: BAF3-EGFR (del19/T790M/C797S) cells; assay: Inhibition of proliferation of BAF3-EGFR (Del19/T790M/C797S) cells, CCK-8; type: cell-based; conditions: Ba/F3 EGFR-Del19/T790M/C797S, 72 h, read-out: BAF3(EGFR T790M Del19 C797S) cell inhibitory activity IC50
Summary of the method: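 Cells seeded at 1.0×10^5 cells/mL in RPMI + 10% FBS, cultured overnight at 37° C, 5% CO2, then compound added in duplicate wells, with untreated cells as negative control. Inhibition rate calculated against negative-control and blank means. IC50 obtained from four-parameter fit of inhibition versus log concentration.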

[2] = In vitro stability in liver microsomes; type: in vitro ADME; conditions: Human liver microsome
Method: 300 μL of the final incubation system contains 30 μL of liver microsomes (protein concentration: 0.15 mg/mL), 30 μL of NADPH+MgCl2, 3 μL of the test compound (in acetonitrile), and 237 μL of PBS buffer (pH 7.4). The proportion of the organic solvent (acetonitrile) was 1%. Samples were prepared in duplicate of 0.3 mL for each species (e.g., human or mouse liver microsomes). Tubes each containing 270 μL of a mixed solution of substrate and enzyme […] were pre-incubated at 37° C. for 5 min. 30 μL of NADPH+MgCl2 was added and the mixture was mixed. 50 μL of the mixture was taken at 0 min, 15 min, 30 min, and 60 min, and 300 μL of glacial acetonitrile containing an internal standard was added to terminate the reaction.
50 μL of the incubated sample was added with 300 μL of glacial acetonitrile containing an internal standard (20 ng/mL diazepam) for precipitation. The mixture was vortexed for 5 min, and centrifuged (12,000 rpm, 4° C.) for 10 min. 75 μL of supernatant was taken and diluted with 75 μL of ultrapure water. After being homogeneously mixed, 0.5 μL of the resulting sample was injected for analysis.

[3] = system: PC-9 EGFR-Del19-T790M-C797S cells; assay: Inhibition of proliferation of PC-9-EGFR (Del19 T790M C797S) cells, CCK-8; type: cell-based; conditions: 72 h, read-out: PC-9-EGFR (Del19 T790M C797S) cell inhibitory activity IC50
Summary of the method: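 Cells seeded at 2×10^4 cells/mL were treated 72 h with compound at 1000 nM-0.06 nM final, in replicate wells. CCK-8 absorbance at 450 nm after 2 h gave inhibition rate relative to negative control and blank. IC50 from four-parameter fit against log concentration.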

[4] = molecular target: EGFR (d746-750 (d19)/T790M) (Homo sapiens (Human), UniProt P00533, DEL746-750/T790M); assay: Inhibitory activity for EGFR (d746-750 (d19)/T790M) kinase; type: biochemical; conditions: ATP 5 μM
Summary of the method: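 Recombinant EGFR d746-750/T790M (0.003 ng/μL final) preincubated 30 min with compound (10 to 0.0024 nM, 4-fold steps), then 5 μM ATP and 0.1 μM ULight-poly GT added for 2 h at room temperature. EDTA stop, Eu-anti-phosphotyrosine TR-FRET read (665 nm); IC50 by four-parameter fit.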

[5] = molecular target: EGFR (d746-750/T790M/C797S) (Homo sapiens (Human), UniProt P00533, C797S/DEL746-750/T790M); assay: Inhibitory activity for EGFR (d746-750/T790M/C797S) kinase; type: biochemical; conditions: ATP 5 μM; read-out: EGFR(d19/T790M/C797S) (IC50)
Summary of the method: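 EGFR d746-750/T790M/C797S (0.03 ng/μL final) preincubated 30 min with compound (10 nM–0.0024 nM, 4-fold, 7 points). Reaction with 5 μM ATP and 0.1 μM ULight-poly GT, 2 h at room temperature; EDTA stop, Eu-anti-phosphotyrosine TR-FRET read at 665 nm, IC50 by four-parameter fit.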

[6] = system: BAF3-EGFR (L858R/T790M/C797S) cells; assay: Inhibition of proliferation of BAF3-EGFR (L858R/T790M/C797S) cells, CCK-8; type: cell-based; conditions: Ba/F3 EGFR, 72 h, read-out: BAF3(EGFR T790M L858R C797S) cell inhibitory activity IC50
Summary of the method: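 BaF3 EGFR L858R/T790M/C797S cells seeded at 1.5×10^5 cells/mL in RPMI + 10% FBS, 37 °C, compound added after overnight, duplicates. Viability by CCK-8; % inhibition vs untreated and blank, IC50 by four-parameter fit.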

NCI-H1975(L858R T790M) = assay: Nude mouse subcutaneous xenograft tumor model of NCI-H1975 cells; type: in vivo, nude mice; conditions: once a day, 14 days
Description: Evaluation on drug effect on nude mouse subcutaneous xenograft tumor model of NCI-H1975 cells: NCI-H1975 cells were inoculated subcutaneously in the right axilla of SPF-grade female nude mice (source: Jiangsu Huachuang Sino Pharmaceutical Technology Co., Ltd.) at 1×10^6 cells/mouse. When the mean tumor volume reached about 200 mm^3, the animals were grouped.
(§1) The day of grouping was defined as day 0, and intragastric administration was started on day 0 and performed once a day. The tumor volume was measured 2-3 times a week, meanwhile, the mice were weighed and the data were recorded; the general behavior of the mice was observed and recorded every day. After the experiment was completed, the tumors were removed, weighed, and photographed.
(§2) Tumor volume TV (mm^3)=½×(a×b^2),
(§3) Relative tumor volume RTV=TVt/TV0,
(§4) Relative tumor proliferation rate T/C (%)=(TRTV/CRTV)×100%,
(§5) Tumor growth inhibition rate TGI (%)=(1−TW/TW0)×100%;

[7] = In vivo pharmacokinetics in ICR mice; conditions: mouse, plasma, PO, 10 mg/kg intragastric
Summary of the method: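 ICR mice (18–20 g, 9 per group, fasted 12 h) received 10 mg/kg of compound intragastrically. Orbital blood was taken from 0 min to 24 h and EDTA-K2 plasma was prepared. Plasma was precipitated with acetonitrile containing diazepam as internal standard and analysed by LC/MS/MS.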

[8] = system: PC9-EGFR (del19-T790M-C797S); assay: Nude mouse subcutaneous xenograft tumor model of PC9-EGFR (del19-T790M-C797S) tumor mass; type: in vivo, nude mice
Description: Evaluation on drug effect on nude mouse subcutaneous xenograft tumor model of PC9-EGFR (del19-T790M-C797S) tumor mass: PC9-EGFR (del19-T790M-C797S) cells were inoculated subcutaneously in the right axilla of SPF-grade female nude mice (source: Laboratory Animal Operation Department, Shanghai Institute for Biomedical and Pharmaceutical Technologies) at 1×10^7 cells/mouse for the F1 generation. The nude mouse tumor tissue of the F1 generation was taken out, and the necrotic tissue was removed. Then the rest of the tumor tissue was cut into tumor masses of about 1.5-2 mm and inoculated subcutaneously in the right axilla of the nude mice. When the mean tumor volume reached about 200 mm^3, the animals were grouped.
as §1, §2, §3, §4, §5

[9] = 15 mpk*4 + 10 mpk*25 (i.g), 29 days

EGFR (d746-750/T790M/C797S), sequence (P00533 other isoform, or with tags, fused parts or gaps T790M/C797S/del 1-694/del 746-750 limits assumed): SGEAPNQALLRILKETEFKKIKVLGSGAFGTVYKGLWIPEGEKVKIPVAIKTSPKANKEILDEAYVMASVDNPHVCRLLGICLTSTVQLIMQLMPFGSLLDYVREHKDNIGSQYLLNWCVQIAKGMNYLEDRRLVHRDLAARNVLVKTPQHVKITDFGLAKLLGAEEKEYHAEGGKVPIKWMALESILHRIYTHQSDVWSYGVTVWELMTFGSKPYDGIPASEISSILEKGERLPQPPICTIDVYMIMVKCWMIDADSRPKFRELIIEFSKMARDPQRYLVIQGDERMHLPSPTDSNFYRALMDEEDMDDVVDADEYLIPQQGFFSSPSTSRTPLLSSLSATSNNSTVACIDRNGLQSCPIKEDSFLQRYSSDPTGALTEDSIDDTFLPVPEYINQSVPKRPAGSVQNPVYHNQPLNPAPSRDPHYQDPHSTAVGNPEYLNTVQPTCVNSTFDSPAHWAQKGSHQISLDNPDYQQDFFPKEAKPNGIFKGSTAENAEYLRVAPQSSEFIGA
EGFR (d746-750 (d19)/T790M), sequence (P00533 other isoform, or with tags, fused parts or gaps T790M/del 1-668/del 746-750 limits assumed): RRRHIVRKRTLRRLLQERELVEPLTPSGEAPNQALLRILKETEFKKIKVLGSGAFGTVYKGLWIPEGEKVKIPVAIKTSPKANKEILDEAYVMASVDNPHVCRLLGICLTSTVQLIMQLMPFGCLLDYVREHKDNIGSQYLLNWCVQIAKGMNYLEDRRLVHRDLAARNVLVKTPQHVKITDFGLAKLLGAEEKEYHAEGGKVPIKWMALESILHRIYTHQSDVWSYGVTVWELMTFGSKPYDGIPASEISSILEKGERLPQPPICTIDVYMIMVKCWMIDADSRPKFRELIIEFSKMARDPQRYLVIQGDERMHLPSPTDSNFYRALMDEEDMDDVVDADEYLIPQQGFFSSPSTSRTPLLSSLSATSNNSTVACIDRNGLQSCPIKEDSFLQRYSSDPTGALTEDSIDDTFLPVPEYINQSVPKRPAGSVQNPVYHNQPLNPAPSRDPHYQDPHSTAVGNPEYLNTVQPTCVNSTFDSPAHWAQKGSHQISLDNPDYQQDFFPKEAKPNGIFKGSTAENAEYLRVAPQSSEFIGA

Compound: Cc1cc2cc(n1)-c1cnn(C)c1OCCC[C@@H](C1CC1)CN1/C(=N/C2=O)Nc2cc(NCCCN(C)C)ccc21 [Example 44]
- IC50 [1]: < 1 nM
- Stability in liver microsomes (residual %, T = 60 min) [2]: 80.24%
- IC50 [3]: < 50 nM
- IC50 [4]: 0.0081 nM
- IC50 [5]: 0.012 nM
- IC50 [6]: < 5 nM

Compound: Cc1cc2cc(n1)-c1cnn(C)c1OCCC[C@@H](C1CC1)CN1/C(=N/C2=O)Nc2ccc(N(C)CCN(C)C)cc21 [Example 45]
- IC50 [1]: < 1 nM
- Tumor growth inhibition % (tumor weight, d 14) (NCI-H1975(L858R T790M); 10 mpk (i.g)): 76.2% (tumor
- Tumor growth inhibition % (volume, d 12) (NCI-H1975(L858R T790M); 10 mpk (i.g)): 76.6%
- IC50 [3]: < 50 nM
- IC50 [4]: 0.013 nM
- IC50 [5]: 0.018 nM
- IC50 [6]: < 5 nM

Compound: Cc1cc2cc(n1)-c1cnn(C)c1OCCC[C@@H](C1CC1)CN1/C(=N/C2=O)Nc2cc(NC3CCN(C(C)C)CC3)ccc21 [Example 47]
- IC50 [1]: < 1 nM
- Stability in liver microsomes (residual %, T = 60 min) [2]: 96.11%
- IC50 [3]: < 50 nM
- IC50 [4]: 0.017 nM
- IC50 [5]: 0.027 nM
- IC50 [6]: < 5 nM

Compound: CCN1CCC(Nc2ccc3c(c2)N/C2=N\C(=O)c4cc(C)nc(c4)-c4cnn(C)c4OCCC[C@@H](C4CC4)CN23)CC1 [Example 48]
- IC50 [1]: < 1 nM
- Stability in liver microsomes (residual %, T = 60 min) [2]: 95.68%
- IC50 [3]: < 50 nM
- IC50 [4]: 0.017 nM
- IC50 [5]: 0.027 nM
- IC50 [6]: < 5 nM

Compound: Cc1cc2cc(n1)-c1cnn(C)c1OCCC[C@@H](C1CC1)CN1/C(=N/C2=O)Nc2ccc(N[C@@H](C)CN(C)C)cc21 [Example 66]
- IC50 [1]: < 1 nM
- Tumor growth inhibition % (tumor weight, d 14) (NCI-H1975(L858R T790M); 5 mpk (i.g)): 73.5% (tumor
- Tumor growth inhibition % (volume, d 12) (NCI-H1975(L858R T790M); 5 mpk (i.g)): 71.3%
- Tumor growth inhibition % (tumor weight, d 14) (NCI-H1975(L858R T790M); 10 mpk (i.g)): 87.5% (tumor
- Tumor growth inhibition % (volume, d 12) (NCI-H1975(L858R T790M); 10 mpk (i.g)): 86.2%
- AUC(0-inf) [7]: 2200 ng·h/mL
- AUC(0-t) ([7]; read-out: AUC(0-t)): 2040 ng·h/mL
- Cmax ([7]; read-out: Cmax): 143 ng/mL
- MRT last ([7]; read-out: MRT(0-t)): 8.26 h
- Tmax ([7]; read-out: Tmax): 6 h
- half-life ([7]; read-out: T½ (converted)): 5.98 h
- IC50 [3]: < 50 nM
- Tumor growth inhibition % (tumor weight, d 29) [8, 9]: 95.8% (tumor weight, d 29)
- Tumor growth inhibition % (volume, d 27) [8, 9]: 94.3% (volume, d 27)
- Tumor growth inhibition % (tumor weight, d 29) ([8]; 30 mpk*4 (i.g), 4 days): 56.5%
- Tumor growth inhibition % (volume, d 27) ([8]; 30 mpk*4 (i.g), 4 days): 60.0% (volume, d 27)
- IC50 [6]: < 5 nM

Source: patent publication US20250034165A1, “COMPOUND CONTAINING CYCLOALKYL OR HALOALKYL” (CHIA TAI TIANQING PHARMACEUTICAL GROUP CO., LTD., priority 2021, published 2025)
